In patent US4338334A, “1-[4-(4-Sulfanilyl)phenyl] urea and derivatives in compositions and methods of treating rheumatoid arthritis and immune complex diseases” (priority 1980, dated 1982):

Key:
mice = assay: acute toxicity as measured by LD50 in mice; type: in vivo; conditions: compared with dapsone
[1] = tested on: mammalian macrophage membrane; assay: incorporation of choline into the mammalian macrophage membrane; type: cell-based
[2] = tested on: chick peritoneal macrophages; conditions: Shigeura et al., 1975; cited from earlier work
lymphocyte = lymphocyte transformation; type: cell-based
Marek's disease = conditions: cited from earlier work
methemoglobin = tested on: methemoglobin; parameters: species or system mice; conditions: mouse, in vivo
[3] = cited from earlier work; for ability to alter the course of the disease / immune complexes as measured by rheumatoid factor titers: rheumatoid arthritis

**Q.** For `NC(=O)Nc1ccc(S(=O)(=O)c2ccc(N)cc2)cc1` [1-[4-(4-sulfanilyl)phenyl]urea], which “acute toxicity as measured by LD50” value (mice) is on record?
**A.** less acutely toxic than dapsone

**Q.** And the “incorporation of choline into the mammalian macrophage membrane” value [1]?
**A.** inhibit the incorporation

**Q.** What about the “incorporation of chloline in chick peritoneal macrophages” value [2] of the same compound?
**A.** inhibit the incorporation

**Q.** And the lymphocyte transformation (lymphocyte)?
**A.** effect lymphocyte transformation

**Q.** What about the “lesion incidence of poultry exposed to Marek's disease” value (Marek's disease) of the same compound?
**A.** decreasing lesion incidence

**Q.** And the “mortality of poultry exposed to Marek's disease” value (Marek's disease)?
**A.** reducing mortality

**Q.** And the methemoglobin formation (methemoglobin)?
**A.** significantly less active in producing this toxic syndrome

**Q.** What does the source list for `CC(C)(S)[C@@H](N)C(=O)O` [D-penicillamine]?
**A.** ability to alter the course of the disease [3]: can alter the course of the disease; immune complexes as measured by rheumatoid factor titers [3]: reducing the immune complexes

**Q.** What does the source list for `Nc1ccc(S(=O)(=O)c2ccc(N)cc2)cc1` [Dapsone, 4,4'-diaminodiphenylsulfone]?
**A.** incorporation of choline into the mammalian macrophage membrane [1]: inhibit the incorporation; lymphocyte transformation (lymphocyte): effect lymphocyte transformation; effectiveness in treating rheumatoid arthritis ([3]; McConkey et al., 1976): effective in treating rheumatoid arthritis

**Q.** Which “symptomatic relief of the acute syndrome characterizing rheumatoid arthritis” value ([3]; in vivo) does the source give for `CC(=O)Oc1ccccc1C(=O)O` [aspirin] here?
**A.** effective in providing symptomatic relief of the acute syndrome

**Q.** And the “ability to alter the course of the disease” value [3]?
**A.** unable to alter the course of the disease

**Q.** Which results are given for gold?
**A.** ability to alter the course of the disease [3]: can alter the course of the disease; immune complexes as measured by rheumatoid factor titers [3]: reducing the immune complexes
